Measurements from patent publication US9487749B2 (priority 2009, dated 2016).
Where two headings read alike, the source gives them in different places.

What was measured:
Streptococcus Pneumonia = settings: Streptococcus pneumoniae, 7 h
[1] = test system: Streptococcus Pyogenes (Lancefield group A); settings: 18 h

Q: How did the “Viability of S. pneumonia” value (Streptococcus Pneumonia; 5 %) turn out when C[S+](C)[O-] [DMSO, Dimethyl sulfoxide] was run?
A: 75.45%

Q: What about the “Viability of S. pneumonia” value (Streptococcus Pneumonia; 10 %) of the same compound?
A: 40.18%

Q: And the “S. pyogenes viability (%)” value ([1]; 5 %)?
A: 96.66%

Q: What about the “Viability of S. pyogenes (%)” value ([1]; 5 %) of the same compound?
A: 96.66%

Q: What about the “S. pyogenes viability (%)” value ([1]; 8 %) of the same compound?
A: 9.96%

Q: And the “Viability of S. pyogenes (%)” value ([1]; 10 %)?
A: 14.50%

Q: What about the “Viability of S. pyogenes (%)” value ([1]; 20 %) of the same compound?
A: 5.14%
